The results in this text go back to ChEMBL document CHEMBL1201862, “PubChem BioAssay data set” (2004).

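96-well plates; 48 h exposure; 5 concentrations. Endpoints by linear interpolation between flanking doses. Not reached: highest tested concentration assigned. Abbreviation: GI50, concentration required for 50% inhibition of growth.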 The source made the active and inactive calls. Cut-off read from the data, not from the text of the source: active = GI50 up to about 1.1 µM and inactive = higher.

Some test systems named below: SK-MEL-2; SK-OV-3; SF-268; A498; A549; SF-539; SW-620; EKVX; M14; HL-60; UO-31; LXFL 529; HT-29; OVCAR-4; OVCAR-8; MOLT-4; CAKI-1; HOP-92; NCI/ADR-RES; MCF7.
Test in all cases: growth of human tumour cells (NCI), 48 h

Consider `O=C1CCC2(c3ccc(Cl)cc3)Nc3cc(Cl)ccc3N12` (stereo not drawn), for which the GI50 was 11.4 µM (inactive) in the assay on SK-MEL-2; 17.6 µM (inactive) in the assay on SK-OV-3; 12.4 µM (inactive) with SF-268; 12.1 µM (inactive) in the assay on A498; 11.5 µM (inactive) in the assay on A549; 2.3 µM (inactive) in the assay on SF-539. Further, the GI50 with SW-620 was 6.14 µM (inactive); in the assay on EKVX it was 15 µM (inactive); with M14, 15.2 µM (inactive); in the assay on HL-60, 1.15 µM (inactive); with UO-31 it was 15.6 µM (inactive); in the assay with LXFL 529 it was 10.8 µM (inactive). In addition, the GI50 was 12.4 µM (inactive) in the assay with HT-29, 10.6 µM (inactive) in the assay on OVCAR-4 and 7.76 µM (inactive) in the assay on OVCAR-8.
For `C[Si](C)(C)OC1CC(=O)OC1n1cc(F)c(=O)[nH]c1=O` (stereo not drawn), the GI50 in the assay on SK-MEL-2 is > 100 µM (inactive); with SK-OV-3, > 95.7 µM (inactive); with SF-268, 50.7 µM (inactive); with A498, > 100 µM (inactive); with A549 it was 4.38 µM (inactive); in the assay with SF-539 it was 2.58 µM (inactive). The GI50 is 17.8 µM (inactive) with MOLT-4; 24.2 µM (inactive) in the assay on SW-620; 8.18 µM (inactive) with EKVX; 48.6 µM (inactive) with M14; 9.71 µM (inactive) with HL-60; 23.9 µM (inactive) in the assay on CAKI-1. Also, the GI50 in the assay with UO-31 was 13 µM (inactive); with LXFL 529, 52.4 µM (inactive); in the assay on HT-29 it was 8.32 µM (inactive); in the assay on OVCAR-4 it was > 28.4 µM (inactive); in the assay with OVCAR-8, 31.8 µM (inactive).
Regarding `COC(=O)c1ccc(Cl)cc1NC(=O)C1CCCCC1`, the GI50 in the assay with SK-MEL-2, in the assay on SF-268, in the assay on A549, with SF-539, in the assay with MOLT-4 and in the assay on SW-620 was > 100 µM (inactive) throughout. Besides, the GI50 in the assay on EKVX is > 100 µM (inactive); in the assay on CAKI-1, > 100 µM (inactive); in the assay on HOP-92 it was > 100 µM (inactive); in the assay on UO-31, 3.53 µM (inactive); with LXFL 529, > 100 µM (inactive); with HT-29, > 100 µM (inactive). The GI50 with OVCAR-4 and with OVCAR-8 was > 100 µM (inactive) throughout.
Consider `COC1OC(COS(=O)(=O)c2ccc(C)cc2)C(O)C(OS(=O)(=O)c2ccc(C)cc2)C1OS(=O)(=O)c1ccc(C)cc1` (stereo not drawn), for which the GI50 in the assay with SK-MEL-2, in the assay on SK-OV-3, with SF-268, in the assay on A549, in the assay on SF-539 and in the assay with MOLT-4 was > 100 µM (inactive) throughout. Besides, the GI50 was 16 µM (inactive) in the assay on SW-620; > 100 µM (inactive) with EKVX; > 100 µM (inactive) with M14; > 100 µM (inactive) with HL-60; 1.03 µM (active) in the assay on CAKI-1; > 100 µM (inactive) in the assay with UO-31. Besides, the GI50 in the assay with LXFL 529, with HT-29, in the assay with OVCAR-4 and with OVCAR-8 was > 100 µM (inactive) throughout.
Turning to `C/C=C1\CN2CCc3c([nH]c4ccccc34)C2C=C1CCO` (stereo not drawn), the GI50 with SK-MEL-2, with SK-OV-3, in the assay on SF-268, with A549, in the assay with SF-539 and in the assay with MOLT-4 was > 340 µM (inactive) each time. The GI50 with SW-620, in the assay with EKVX, in the assay with HL-60, in the assay with CAKI-1, in the assay with HOP-92 and in the assay on LXFL 529 was > 340 µM (inactive) in each case. Besides, the GI50 in the assay with HT-29 and with OVCAR-8 was > 340 µM (inactive) each time.
`CC(=O)n1c2ccccc2c2nc3nc(Oc4ccc(C)cc4)c4ccccc4c3cc21`: the GI50 with SK-MEL-2 is > 100 µM (inactive); in the assay on SK-OV-3, > 100 µM (inactive); in the assay with SF-268 it was 92.3 µM (inactive); with A549, > 100 µM (inactive); with SF-539, > 100 µM (inactive); with MOLT-4, > 100 µM (inactive). In addition, the GI50 is > 100 µM (inactive) in the assay on SW-620; > 100 µM (inactive) in the assay with EKVX; > 100 µM (inactive) with M14; > 100 µM (inactive) in the assay on CAKI-1; > 100 µM (inactive) in the assay on UO-31; 97.9 µM (inactive) in the assay with LXFL 529. Also, the GI50 in the assay with HT-29 was > 100 µM (inactive); with OVCAR-4, 29.4 µM (inactive); with OVCAR-8, > 100 µM (inactive).
`Cc1nn(C(=O)CC(=O)Nc2ccc(Cl)cc2)c(C)c1/N=N/c1ccccc1C(=O)O`: the GI50 with SK-MEL-2, in the assay on SK-OV-3, in the assay with SF-268, with A498, in the assay with A549 and in the assay with SF-539 was > 100 µM (inactive) throughout. Further, the GI50 in the assay on MOLT-4, in the assay on SW-620, in the assay on EKVX, in the assay with M14, in the assay on HL-60 and with CAKI-1 was > 100 µM (inactive) each time. The GI50 in the assay with UO-31, in the assay on LXFL 529, in the assay on HT-29, in the assay with OVCAR-4 and in the assay on OVCAR-8 was > 100 µM (inactive) in each case.
In the case of `CC(=O)C(=[N+]=[N-])C(=O)NCC#N`, the GI50 in the assay on SK-MEL-2, in the assay on SK-OV-3, with SF-268, in the assay with A498, in the assay on A549 and in the assay with SF-539 was > 10 µM (inactive) each time. Moreover, the GI50 in the assay with MOLT-4, with SW-620, with EKVX, with M14, in the assay on HL-60 and in the assay with CAKI-1 was > 10 µM (inactive) in each case. The GI50 with HOP-92, in the assay on UO-31, in the assay with NCI/ADR-RES, in the assay on HT-29, in the assay on OVCAR-4 and with OVCAR-8 was > 10 µM (inactive) each time. Also, the GI50 with MCF7 was > 10 µM (inactive).
Regarding `CCOC(=O)Cn1nnc2cc(Nc3nc4ccccc4nc3C(=O)OCC)ccc21`, the GI50 with SK-MEL-2 is 78.2 µM (inactive); in the assay with SK-OV-3, 50.2 µM (inactive); in the assay with SF-268, 22.5 µM (inactive); with A498, 46.1 µM (inactive); in the assay on A549, > 100 µM (inactive); with SF-539, 17.3 µM (inactive). The GI50 was > 100 µM (inactive) in the assay with MOLT-4; > 100 µM (inactive) with SW-620; 33.7 µM (inactive) in the assay with EKVX; > 100 µM (inactive) in the assay on M14; > 100 µM (inactive) in the assay with HL-60; > 100 µM (inactive) in the assay on CAKI-1. Besides, the GI50 with HOP-92 is 20.9 µM (inactive); in the assay on UO-31, 2 µM (inactive); in the assay with NCI/ADR-RES, 64.9 µM (inactive); in the assay with HT-29, > 100 µM (inactive); with OVCAR-4, > 100 µM (inactive); in the assay with OVCAR-8, 49.7 µM (inactive). Moreover, the GI50 in the assay with MCF7 is > 100 µM (inactive).
`COc1cc2oc3c(c(=O)c2c(O)c1/C=C/C(C)C)C(C=C(C)C)Oc1cc(O)ccc1-3` (stereo not drawn): the GI50 is 16 µM (inactive) in the assay with SK-MEL-2; 16.6 µM (inactive) in the assay on SK-OV-3; 18.7 µM (inactive) in the assay with SF-268; 24.7 µM (inactive) in the assay with A498; 15 µM (inactive) in the assay with A549; 17.5 µM (inactive) in the assay on SF-539. For the same compound, the GI50 with MOLT-4 is 4.83 µM (inactive); in the assay on SW-620, 16.1 µM (inactive); in the assay on EKVX it was 16.1 µM (inactive); in the assay with M14, 13.3 µM (inactive); in the assay with HL-60, 17.8 µM (inactive); in the assay with CAKI-1, 18 µM (inactive). The GI50 with HOP-92 was 15.6 µM (inactive); with UO-31, 12.1 µM (inactive); in the assay with NCI/ADR-RES, 16.1 µM (inactive); with HT-29, 14 µM (inactive); in the assay on OVCAR-4, 16.6 µM (inactive); in the assay with OVCAR-8, 16.2 µM (inactive). Besides, the GI50 in the assay on MCF7 is 14.4 µM (inactive).
Turning to `ClCc1nn(-c2ccccc2)c(CCl)c1CCl`, the GI50 in the assay on SK-MEL-2 was 5.71 µM (inactive); in the assay on SK-OV-3, 8.89 µM (inactive); in the assay with SF-268 it was 3.27 µM (inactive); with A498, 12 µM (inactive); in the assay with A549, 7.66 µM (inactive); in the assay on SF-539 it was 2.34 µM (inactive). The GI50 with MOLT-4 was 1.72 µM (inactive); with SW-620 it was 2.55 µM (inactive); in the assay on EKVX, 3.03 µM (inactive); in the assay on M14, 3.3 µM (inactive); with HL-60 it was 1.82 µM (inactive); with CAKI-1, 7.31 µM (inactive). For the same compound, the GI50 with HOP-92 was 3.33 µM (inactive); with UO-31, 4.74 µM (inactive); with NCI/ADR-RES, 5.57 µM (inactive); in the assay on HT-29, 3.43 µM (inactive); in the assay with OVCAR-4 it was 2.72 µM (inactive); in the assay with OVCAR-8, 2.35 µM (inactive). In the assay on MCF7, the GI50 is 2.38 µM (inactive).
Regarding `ClCCCc1ccccc1C1=NCCc2ccccc21`, the GI50 in the assay with SK-MEL-2 is > 100 µM (inactive); in the assay with SK-OV-3 it was > 100 µM (inactive); with SF-268, 49.7 µM (inactive); with A498, > 100 µM (inactive); with A549 it was 54.2 µM (inactive); in the assay with SF-539 it was > 100 µM (inactive). In addition, the GI50 in the assay on MOLT-4 was 82.4 µM (inactive); in the assay with SW-620, > 100 µM (inactive); in the assay with EKVX, 80.9 µM (inactive); in the assay with M14 it was > 100 µM (inactive); in the assay with HL-60, 23.5 µM (inactive); with CAKI-1 it was > 100 µM (inactive). Besides, the GI50 in the assay with HOP-92 was 81.1 µM (inactive); with UO-31, > 100 µM (inactive); in the assay with NCI/ADR-RES it was > 100 µM (inactive); in the assay with HT-29, 28.5 µM (inactive); with OVCAR-4 it was 51.5 µM (inactive); with OVCAR-8, 24.9 µM (inactive). Also, in the assay with MCF7, the GI50 was 66.2 µM (inactive).
